Drawing on US20120129870A1, “PIPERAZINYL DERIVATIVES USEFUL AS MODULATORS OF THE NEUROPEPTIDE Y2 RECEPTOR” (priority 2007, published 2012), this text covers IC50 for 26 compounds.

The target in the assay is T1, NPY Y2 receptor (Homo sapiens, UniProt P49146).
T1 sequence (P49146 1-381): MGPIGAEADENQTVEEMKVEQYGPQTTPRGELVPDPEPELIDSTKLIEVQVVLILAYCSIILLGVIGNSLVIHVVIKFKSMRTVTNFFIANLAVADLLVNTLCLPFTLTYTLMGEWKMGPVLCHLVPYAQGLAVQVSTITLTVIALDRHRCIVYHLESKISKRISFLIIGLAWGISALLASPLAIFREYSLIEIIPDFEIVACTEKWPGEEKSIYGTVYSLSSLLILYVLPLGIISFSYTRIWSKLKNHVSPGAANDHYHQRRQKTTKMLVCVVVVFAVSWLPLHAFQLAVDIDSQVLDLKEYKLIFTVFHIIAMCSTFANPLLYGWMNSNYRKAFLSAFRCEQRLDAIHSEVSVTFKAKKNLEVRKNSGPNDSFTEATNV
The experiment in a line: Neuropeptide Y2 radioligand binding assay ([125I]PYY, KAN-Ts membranes). Details: endogenous in cells; host or cells: KAN-Ts cells (membrane preparation). The following applies: KAN-Ts membranes endogenously expressing Y2, [125I]PYY (80 pM), 1 h at rt. How it is done: KAN-Ts endogenously expressing Y2 receptors were used for the radioligand binding assay. Cells were grown to confluence on 150 cm^2 tissue culture plates, washed with phosphate-buffered saline (PBS), and scraped into 50 mL tubes. After centrifugation, the supernatant was aspirated, and the pellets frozen and stored at −80° C. Thawed pellets were homogenized with a polytron tissue grinder for 15 sec in 20 mM Tris-HCl, 5 mM EDTA. The homogenate was centrifuged at 800×g for 5 min and the collected supernatant was recentrifuged at 25000×g for 25 min. The resulting pellet was resuspended in binding buffer (20 mM HEPES, 120 mM NaCl, 0.22 mM KH2PO4, 1.3 mM CaCl2, 0.8 mM MgSO4). Membranes were incubated with [^125I]PYY (80 pM) in the presence or absence of test compound for 1 h at rt. The reaction was stopped by filtration through GF/C filter plates pre-soaked in 0.3% polyethylenimine and subsequently washed with Tris 50 mM, 5 mM EDTA buffer. Plates were dried for 1 h in a 55° C. oven, scintillation fluid was added and the radioactivity was counted in a Packard TopCount. Specific binding to the NPY receptor subtypes was determined by radioactivity that was bound in the presence of […]. Each binding experiment was repeated three to eight times, each in duplicate. IC50 values (i.e. concentration of unlabelled peptide or antagonist required to compete for 50% of specific binding to the radioligand) were calculated using the GraphPad Prism software (GraphPad Software Inc., San Diego Calif.) with a fit to a sigmoidal dose response curve. Apparent K, values were calculated as Ki=IC50/(1+C/KD), where C is concentration of the radioligand.

As usually defined, the IC50 is the concentration that inhibits the measured activity by half. A high value points to weaker potency in that assay. `Cn1ccnc1Nc1ccc(N2CCN(C(c3ccccc3)c3ncco3)CC2)c(F)c1` (centres unmarked) [Compound 58, {3-Fluoro-4-[4-(oxazol-2-yl-phenyl-methyl)-piperazin-1-yl]-phenyl}-(1-methyl-1H-imidazol-2-yl)-amine]: the 50% inhibitory concentration (IC50) was greater than 10000 nM. `Cc1ccnc(Nc2ccc(N3CCN(C(c4ccccc4)c4ncco4)CC3)c(F)c2)n1` (centres unmarked) [Compound 61, {3-Fluoro-4-[4-(oxazol-2-yl-phenyl-methyl)-piperazin-1-yl]-phenyl}-(4-methyl-pyrimidin-2-yl)-amine]: the IC50 is greater than 10000 nM.

`Cc1cccc(Nc2ccc(N3CCN(C(c4ccccc4)c4ncco4)CC3)c(F)c2)n1` (centres unmarked) [Compound 62, {3-Fluoro-4-[4-(oxazol-2-yl-phenyl-methyl)-piperazin-1-yl]-phenyl}-(6-methyl-pyridin-2-yl)-amine]: the IC50 is 4700 nM. As for `Cc1ccccc1Nc1ccc(N2CCN(C(c3ccccc3)c3ncco3)CC2)c(F)c1` (centres unmarked) [Compound 63, {3-Fluoro-4-[4-(oxazol-2-yl-phenyl-methyl)-piperazin-1-yl]-phenyl}-o-tolyl-amine], the IC50 stood at 710 nM. On to `CCC(CC)C(=O)Nc1ccc(N2CCN(C(c3ccccc3)c3nccn3C)CC2)c(F)c1` (centres unmarked) [Compound 64, 2-Ethyl-N-(3-fluoro-4-{4-[(1-methyl-1H-imidazol-2-yl)-phenyl-methyl]-piperazin-1-yl}-phenyl)-butyramide], for which the concentration for half-maximal inhibition (IC50) is 170 nM.

`CCC(CC)C(=O)Nc1ccc(N2CCN(C(c3ncco3)C3CC3)CC2)c(F)c1` (centres unmarked) [Compound 66, N-{4-[4-(Cyclopropyl-oxazol-2-yl-methyl)-piperazin-1-yl]-3-fluoro-phenyl}-2-ethyl-butyramide] gave an IC50 of 1500 nM.

`CC(C)C(=O)Nc1ccc(N2CCN(C(c3ccccc3)c3ncco3)CC2)c(F)c1` (centres unmarked) [Compound 72, N-{3-Fluoro-4-[4-(oxazol-2-yl-phenyl-methyl)-piperazin-1-yl]-phenyl}-isobutyramide] yielded an IC50 of 320 nM. This IC50 is about 4.7-fold lower than that of the compound before. Then `O=C(Nc1ccc(N2CCN(C(c3ccccc3)c3ncco3)CC2)c(F)c1)C1CCC1` (centres unmarked) [Compound 73, Cyclobutanecarboxylic acid {3-fluoro-4-[4-(oxazol-2-yl-phenyl-methyl)-piperazin-1-yl]-phenyl}-amide], with 180 nM; and `Cc1cc(NC(=O)C(C)C)ccc1N1CCN(C(c2ccccc2)c2ncco2)CC1` (centres unmarked) [Compound 74, N-{3-Methyl-4-[4-(oxazol-2-yl-phenyl-methyl)-piperazin-1-yl]-phenyl}-isobutyramide], with 2600 nM; and `Cc1cc(NC(=O)C2CCC2)ccc1N1CCN(C(c2ccccc2)c2ncco2)CC1` (centres unmarked) [Compound 76, Cyclobutanecarboxylic acid {3-methyl-4-[4-(oxazol-2-yl-phenyl-methyl)-piperazin-1-yl]-phenyl}-amide], with 1400 nM.

The compound `CCC(CC)C(=O)Nc1ccc(N2CCN(C(c3ccccc3)C3CCC3)CC2)c(F)c1` (centres unmarked) [Compound 78, N-{4-[4-(Cyclobutyl-phenyl-methyl)-piperazin-1-yl]-3-fluoro-phenyl}-2-ethyl-butyramide] displayed an IC50 of 53 nM. Compared with the last compound, the IC50 is about 26-fold lower. Then `Cc1cc(NC(=O)C2CC2)ccc1N1CCN(C(c2ccccc2)c2ncco2)CC1` (centres unmarked) [Compound 81, Cyclopropanecarboxylic acid {3-methyl-4-[4-(oxazol-2-yl-phenyl-methyl)-piperazin-1-yl]-phenyl}amide], with 1700 nM; and `CCC(CC)C(=O)Nc1ccc(N2CCN(C(c3ccccc3)C3CCCC3)CC2)c(F)c1` (centres unmarked) [Compound 83, N-{4-[4-(Cyclopentyl-phenyl-methyl)-piperazin-1-yl]-3-fluoro-phenyl}-2-ethyl-butyramide], with 200 nM.

`CCC(CC)C(=O)Nc1ccc(N2CCN(C(c3ccc(OC)cc3)C3CC3)CC2)c(F)c1` (centres unmarked) [Compound 84, N-(4-{4-[Cyclopropyl-(4-methoxy-phenyl)-methyl]-piperazin-1-yl}-3-fluoro-phenyl)-2-ethyl-butyramide] gave an IC50 of 290 nM.

On to `CCC(CC)C(=O)Nc1ccc(N2CCN(C(c3ccccc3)c3ncco3)CC2)c(C#N)c1` (centres unmarked) [Compound 86, N-{3-Cyano-4-[4-(oxazol-2-yl-phenyl-methyl)-piperazin-1-yl]-phenyl}-2-ethyl-butyramide], for which the IC50 came out at 5 nM.

`CC(C)C(=O)Nc1ccc(N2CCN(C(c3ccccc3)c3ncco3)CC2)c(C#N)c1` (centres unmarked) [Compound 87, N-{3-Cyano-4-[4-(oxazol-2-yl-phenyl-methyl)-piperazin-1-yl]-phenyl}-isobutyramide] displayed a concentration for half-maximal inhibition (IC50) of 54 nM. Compound `N#Cc1cc(NC(=O)C2CCC2)ccc1N1CCN(C(c2ccccc2)c2ncco2)CC1` (centres unmarked) [Compound 95, Cyclobutanecarboxylic acid {3-cyano-4-[4-(oxazol-2-yl-phenyl-methyl)-piperazin-1-yl]-phenyl}-amide] registered an IC50 of 100 nM. Then `Cc1ccccc1C(=O)Nc1ccc(N2CCN(C(c3ccccc3)c3ncco3)CC2)c(C#N)c1` (centres unmarked) [Compound 96, N-{3-Cyano-4-[4-(oxazol-2-yl-phenyl-methyl)-piperazin-1-yl]-phenyl}-2-methyl-benzamide], with 150 nM. With `CCCC(=O)Nc1ccc(N2CCN(C(c3ccccc3)c3ncco3)CC2)c(C#N)c1` (centres unmarked) [Compound 98, N-{3-Cyano-4-[4-(oxazol-2-yl-phenyl-methyl)-piperazin-1-yl]-phenyl}-butyramide] the figure was 180 nM; with `CCCC(=O)Nc1ccc(N2CCN(C(c3ccccc3)c3ncco3)CC2)c(F)c1` (centres unmarked) [Compound 100, N-{3-Fluoro-4-[4-(oxazol-2-yl-phenyl-methyl)-piperazin-1-yl]-phenyl}-butyramide], 1300 nM; with `N#Cc1cc(NC(=O)C2CC2)ccc1N1CCN(C(c2ccccc2)c2ncco2)CC1` (centres unmarked) [Compound 101, Cyclopropanecarboxylic acid {3-cyano-4-[4-(oxazol-2-yl-phenyl-methyl)-piperazin-1-yl]-phenyl}-amide], 170 nM. As for `CCC(CC)C(=O)Nc1ccc(N2CCN(C(c3ccc(Cl)cc3)C3CC3)CC2)c(F)c1` (centres unmarked) [Compound 102, N-(4-{4-[(4-Chloro-phenyl)-cyclopropyl-methyl]-piperazin-1-yl}-3-fluoro-phenyl)-2-ethyl-butyramide], the IC50 was found to be 720 nM. With `CC(=O)Nc1ccc(N2CCN(C(c3ccccc3)c3ncco3)CC2)c(C#N)c1` (centres unmarked) [Compound 103, N-{3-Cyano-4-[4-(oxazol-2-yl-phenyl-methyl)-piperazin-1-yl]-phenyl}-acetamide] the figure was greater than 10000 nM.

For the compound `CC(=O)Nc1ccc(N2CCN(C(c3ccccc3)c3ncco3)CC2)c(F)c1` (centres unmarked) [Compound 104, N-{3-Fluoro-4-[4-(oxazol-2-yl-phenyl-methyl)-piperazin-1-yl]-phenyl}-acetamide], the half-inhibitory concentration (IC50) was greater than 10000 nM.

In turn, `CCC(CC)C(=O)Nc1ccc(N2CCN(C(c3ccc(F)cc3)C3CCC3)CC2)c(F)c1` (centres unmarked) [Compound 106, N-(4-{4-[Cyclobutyl-(4-fluoro-phenyl)-methyl]-piperazin-1-yl}-3-fluoro-phenyl)-2-ethyl-butyramide] came in with a half-inhibitory concentration (IC50) of 250 nM. Then `O=C(Nc1ccc(N2CCN(C(c3ccccc3)c3ncco3)CC2)c(F)c1)C1CCCCC1` (centres unmarked) [Compound 107, Cyclohexanecarboxylic acid {3-fluoro-4-[4-(oxazol-2-yl-phenyl-methyl)-piperazin-1-yl]-phenyl}-amide], with 1200 nM.
